Patent publication US5324648A, “Substituted isocoumarins as serine protease inhibitors and anti-inflammatory agents” (Georgia Tech Research Corporation, priority 1992, dated 1994)
Like-named read-outs stand apart in the source and are kept apart here.

Assays:
bovine thrombin = target: T1, bovine thrombin (Bos taurus, UniProt P00735); experiment: Inactivation rate of bovine thrombin; type: biochemical; conditions: Table VIII; pH 7.5, 25° C; [I] 1.2-54 μM; read-out: kobs/[I]
T1 construct: bovine thrombin
Method: (§1) Inactivation rates of serine proteases by substituted isocoumarins were measured by the incubation method. An aliquot of inhibitor (25 or 50 μl) in Me2 SO was added to a buffered enzyme solution (0.01-2.3 μM) to initiate the inactivation. Aliquots (50 μl) were withdrawn at various intervals and the residual enzymatic activity was measured. Me2 SO concentration in the reaction mixture was 8-12% (v/v). 0.1 Hepes, 0.01M CaCl2, pH 7.5 buffer was utilized for trypsin and coagulation enzymes. 0.1M Hepes, 0.5M NaCl, pH 7.5 was utilized for other serine proteases. The inhibitor concentrations are shown in all the tables. Peptide thioesters or peptide nitroanilides with appropriate sequence were used as substrates for various serine proteases. All peptide thioester hydrolysis rates were measured with assay mixtures containing 4,4'-dithiodipyridine (ε324 =19800M^-1 cm^-1; Grasetti & Murray, Arch. Biochem. Biophys. 119, pp 41-49 (1967)). Peptide 4-nitroanilide nitroanilide hydrolysis was measured at 410 nm (ε410 =8800M^-1 cm^-1; Erlanger et al., Arch. Biochem. Biophys. 95, pp 271-278 (1961)). First order inactivation rate constant (kobs) were obtained from plots of ln (vt /vo) vs time, and the correlation coefficients were greater than 0.98.
(§2) ^a Conditions were as 0.1M Hepes, 0.01M CaCl2, pH 7.5 and 8-12%
(§3) Me2 SO and 25° C. Rate constants were measured by incubation
(§4) method unless otherwise noted. An aliquot of inhibitor was added to an
(§5) enzyme solution and aliquots removed with time and assayed for remaining
(§6) enzymatic activity. Firstorder rate constants, kobs were obtained
(§7) from the plots of ln(vt /vo) versus time.
(§8) ^a Inhibition rates were measured in 0.1M Hepes, 0.01M CaCl2, pH
(§9) 7.5 buffer, 8% Me2 SO and at 25° C.

human thrombin = target: T2, human thrombin (Homo sapiens, UniProt P00734); experiment: Inactivation rate of human thrombin; type: biochemical; conditions: Table VIII; pH 7.5, 25° C; [I] 1.2-54 μM; read-out: kobs/[I]
T2 construct: human thrombin
Method: as §1, §8, §9

human factor Xa = target: T3, human factor Xa (Homo sapiens, UniProt P00742); experiment: Inactivation rate of human factor Xa; type: biochemical; conditions: Table VIII; pH 7.5, 25° C; [I] 3.6-44 μM; read-out: kobs/[I]
T3 construct: human factor Xa
T3 sequence (P00742 235-488 limits assumed): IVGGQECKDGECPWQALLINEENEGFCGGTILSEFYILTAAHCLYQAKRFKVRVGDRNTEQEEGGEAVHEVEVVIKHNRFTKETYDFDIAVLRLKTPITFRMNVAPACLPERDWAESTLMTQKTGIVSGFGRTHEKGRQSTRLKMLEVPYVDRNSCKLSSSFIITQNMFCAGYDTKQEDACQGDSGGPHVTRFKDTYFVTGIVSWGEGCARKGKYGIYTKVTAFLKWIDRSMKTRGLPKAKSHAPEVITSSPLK
T3 sequence (P00742 41-179 partner limits assumed): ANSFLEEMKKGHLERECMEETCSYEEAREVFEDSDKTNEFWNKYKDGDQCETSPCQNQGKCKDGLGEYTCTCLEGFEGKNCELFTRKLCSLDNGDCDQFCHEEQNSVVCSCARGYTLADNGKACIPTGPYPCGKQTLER
Method: as §1, §2, §3, §4, §5, §6, §7, §8, §9

rat skin tryptase = target: T4, rat skin tryptase (Rattus norvegicus, UniProt P27435); experiment: Inactivation rate of rat skin tryptase; type: biochemical; conditions: pH 7.5, Table IX; pH 7.5, 25° C; [I] 0.42-0.51 μM; read-out: kobs/[I]
T4 construct: from tissue; host or cells: rat skin
T4 sequence (P27435 29-273): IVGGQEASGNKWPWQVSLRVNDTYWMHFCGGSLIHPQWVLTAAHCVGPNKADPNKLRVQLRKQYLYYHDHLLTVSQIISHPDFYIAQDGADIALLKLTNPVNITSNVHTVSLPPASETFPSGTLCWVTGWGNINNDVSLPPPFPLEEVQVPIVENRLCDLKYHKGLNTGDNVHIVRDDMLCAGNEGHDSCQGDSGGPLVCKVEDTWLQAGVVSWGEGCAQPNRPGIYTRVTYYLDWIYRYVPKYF
Method: as §1
^b Inactivation rates were measured at 25 mM phosphate, 0.5M NaCl, 1
mM EDTA, pH 7.5 buffer, 9% Me2 SO and 25° C.
as §8
(§10) 7.5 buffer for human plasmin; 25 mM Phosphate, 0.5M NaCl, 1 mM EDTA, pH
(§11) 7.5 buffer for rat skin tryptase and 0.1M Hepes, 0.5M NaCl, pH 7.5 for
(§12) human lung tryptase, human skin tryptase and rt-PA. All enzymes were
(§13) assayed with ZArg-SBzl (0.07 mM) in the presence of 4,4dithiodipyridine
(§14) (0.33 mM). Reaction mixtures contained 8% Me2 SO and assays were […]

[1] = target: T5, human leukocyte elastase (HLE) (Homo sapiens, UniProt P08246); experiment: Inactivation of human leukocyte elastase (HLE); type: biochemical; conditions: Table X; pH 7.5, 25° C; [I] 2.1-42 μM; read-out: kobs/[I]
T5 construct: from tissue; host or cells: human leukocytes (from the name)
T5 sequence (P08246 30-267): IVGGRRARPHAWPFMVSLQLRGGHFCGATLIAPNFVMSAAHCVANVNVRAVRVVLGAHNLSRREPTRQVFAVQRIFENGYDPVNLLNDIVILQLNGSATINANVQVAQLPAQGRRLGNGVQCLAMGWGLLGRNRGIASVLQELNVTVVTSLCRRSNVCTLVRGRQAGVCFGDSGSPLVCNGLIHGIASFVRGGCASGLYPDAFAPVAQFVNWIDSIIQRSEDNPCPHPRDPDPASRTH
Method: (§15) Inactivation rates of serine proteases by substituted isocoumarins were measured by the incubation method. An aliquot of inhibitor (25 or 50 μl) in Me2 SO was added to a buffered enzyme solution (0.01-2.3 μM) to initiate the inactivation. Aliquots (50 μl) were withdrawn at various intervals and the residual enzymatic activity was measured. Me2 SO concentration in the reaction mixture was 8-12% (v/v). 0.1 Hepes, 0.01M CaCl2, pH 7.5 buffer was utilized for trypsin and coagulation enzymes. 0.1M Hepes, 0.5M NaCl, pH 7.5 was utilized for other serine proteases. […] Peptide thioesters or peptide nitroanilides with appropriate sequence were used as substrates for various serine proteases. All peptide thioester hydrolysis rates were measured with assay mixtures containing 4,4'-dithiodipyridine (ε324 =19800M^-1 cm^-1 ; Grasetti & Murray, Arch. Biochem. Biophys. 119, pp 41-49 (1967)). Peptide 4-nitroanilide nitroanilide hydrolysis was measured at 410 nm (ε410 =8800M^-1 cm^-1 ; Erlanger et al., Arch. Biochem. Biophys. 95, pp 271-278 (1961)). First order inactivation rate constant (kobs) were obtained from plots of ln (vt /vo) vs time, and the correlation coefficients were greater than 0.98.
(§16) ^a Inactivation rates were measured at 0.1M Hepes, 0.5 NaCl, pH 7.5,
(§17) 8-12% Me2 SO and 25° C. by incubation method.
(§18) ^a Inhibition rates were measured in 0.1M Hepes, 0.05M NaCl, pH 7.5
buffer, 8-9% Me2 SO and at 25° C.
(§19) ^a Inhibition constants were in 0.1M Hepes, 0.5M NaCl, pH 7.5 buffer,
8-9% Me2 SO and at 25° C.
(§20) ^a Inhibition rates were measured in 0.1M Hepes, 0.5M NaCl, 2.5%
Me2 SO, pH 7,5 and at 25° C.
(§21) ^a Inhibition was measured in 0.1M Hepes, 0.5M NaCl, pH 7.5 buffer,
(§22) 5-10% Me2 SO and at 25° C. Suc--Val--Pro--Phe--NA (0.48 mM)
(§23) was used as the substrate for chymotrypsin and cat G.
(§24) ^a Inhibition rates were measured in 0.1M Hepes, 0.5M NaCl, pH 7.5

[2] = target: T6, porcine pancreatic elastase (PPE) (Sus scrofa, UniProt P00772); experiment: Inactivation of porcine pancreatic elastase (PPE); type: biochemical; conditions: Table X; after 20 min incubation
T6 construct: from tissue; host or cells: porcine pancreas (from the name)
T6 sequence (P00772 27-266): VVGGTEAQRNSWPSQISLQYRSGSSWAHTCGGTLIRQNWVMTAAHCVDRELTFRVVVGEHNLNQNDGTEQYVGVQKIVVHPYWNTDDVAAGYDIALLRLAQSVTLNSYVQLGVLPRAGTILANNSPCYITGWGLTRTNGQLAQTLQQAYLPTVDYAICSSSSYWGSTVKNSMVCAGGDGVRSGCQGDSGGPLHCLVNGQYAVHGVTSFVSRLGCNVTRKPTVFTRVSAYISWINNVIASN
Method: as §15, §16, §17, §18
buffer, 8-9% Me2 SO and at 25° C.
as §19
8-9% Me2 SO and at 25° C.
as §20
Me2 SO, pH 7,5 and at 25° C.
as §21, §22, §23, §24

human lung tryptase = experiment: Inactivation rate of human lung tryptase; type: biochemical; conditions: Table IX; for percentage of inhibition: not time dependent, at 0.34-5.0 μM; for kobs/[I]: pH 7.5, 25° C, [I] 0.42-0.47 μM
Method: as §1
^a Inactivation rates were measured at 0.1M Hepes, 0.5M NaCl, pH 7.5
buffer, 8% Me2 SO and 25° C.
as §8, §10, §11, §12, §13, §14

chymotrypsin = chymotrypsin (Bos taurus, UniProt P00766); experiment: Inactivation of chymotrypsin; type: biochemical, bovine; conditions: Table X, read-out: kobs/[I]
[3] = target: recombinant human tissue plasminogen activator (Homo sapiens, UniProt P00750); experiment: Inactivation rate of recombinant human tissue plasminogen activator; type: biochemical; conditions: for kinact/KI: pH 7.5, Table IX, pH 7.5, 25° C, [I] 3.5-5.0 μM, read-out: kobs/[I]
recombinant human tissue plasminogen activator, sequence (P00750 36-562): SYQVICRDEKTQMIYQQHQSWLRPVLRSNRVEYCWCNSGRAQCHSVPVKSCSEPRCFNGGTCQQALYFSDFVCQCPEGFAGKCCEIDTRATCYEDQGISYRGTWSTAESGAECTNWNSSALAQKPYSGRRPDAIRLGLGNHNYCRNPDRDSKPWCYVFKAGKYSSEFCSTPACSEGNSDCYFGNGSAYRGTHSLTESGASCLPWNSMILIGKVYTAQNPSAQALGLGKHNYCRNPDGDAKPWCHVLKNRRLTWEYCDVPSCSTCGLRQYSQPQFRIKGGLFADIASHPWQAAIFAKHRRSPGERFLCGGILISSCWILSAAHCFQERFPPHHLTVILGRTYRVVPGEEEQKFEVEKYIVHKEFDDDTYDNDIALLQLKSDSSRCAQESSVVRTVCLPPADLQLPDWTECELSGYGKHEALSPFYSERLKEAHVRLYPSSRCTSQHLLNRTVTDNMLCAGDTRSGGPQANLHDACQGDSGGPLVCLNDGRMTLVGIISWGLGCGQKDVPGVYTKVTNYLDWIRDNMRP
Method: as §1
^a Inactivation constants were measured at 0.1M Hepes, 0.5M NaCl (or
as §8, §10, §11, §12, §13, §14

cathepsin G = target: T7, cathepsin G (Homo sapiens, UniProt P08311); experiment: Inactivation of cathepsin G; type: biochemical; conditions: Table X; pH 7.5, 25° C; [I] 33-46 μM; read-out: kobs/[I]
T7 construct: from tissue; host or cells: human leukocytes
T7 sequence (P08311 21-255): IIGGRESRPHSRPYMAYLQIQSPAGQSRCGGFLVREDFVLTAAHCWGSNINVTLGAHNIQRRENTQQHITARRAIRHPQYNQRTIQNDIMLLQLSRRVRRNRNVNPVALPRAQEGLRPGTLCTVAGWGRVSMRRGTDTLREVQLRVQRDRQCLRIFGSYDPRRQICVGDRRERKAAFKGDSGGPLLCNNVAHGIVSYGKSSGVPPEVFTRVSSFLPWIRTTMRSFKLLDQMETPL
Method: as §15, §16, §17
and assayed for remaining activity.
as §18
buffer, 8-9% Me2 SO and at 25° C.
Me2 SO, pH 7,5 and at 25° C.
as §21, §22, §23

bovine trypsin = target: T8, bovine trypsin (Bos taurus, UniProt P00760); experiment: Inactivation rate of bovine trypsin; type: biochemical; conditions: Table VIII; pH 7.5, 25° C; [I] 1.1-4.6 μM; read-out: kobs/[I]
T8 sequence (P00760 24-246): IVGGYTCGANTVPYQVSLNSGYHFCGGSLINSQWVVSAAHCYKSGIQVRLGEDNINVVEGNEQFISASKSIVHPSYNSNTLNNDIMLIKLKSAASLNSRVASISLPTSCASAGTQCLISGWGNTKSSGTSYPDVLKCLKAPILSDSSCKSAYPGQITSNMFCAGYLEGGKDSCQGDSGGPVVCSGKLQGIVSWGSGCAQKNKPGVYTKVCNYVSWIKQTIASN
Method: as §1, §2, §3, §4, §5, §6, §7, §8, §9

[4] = Spontaneous hydrolysis in Hepes buffer; type: physicochemical; conditions: 0.1 Hepes, 0.5M NaCl, pH 7.5, 9% Me2SO, 25° C
Method: ^a Conditions were 0.1 Hepes, 0.5M NaCl, pH 7.5 and 9% Me2 SO at
25° C. Spontaneous hydrolysis rates were measured
spectrophotometrically by monitoring the decrease in absorbance due to th
isocoumarin ring system (wavelength 335-380 nm) using the firstorder rate

Compound	kinact/KI (bovine thrombin) [M⁻¹ s⁻¹]	kinact/KI (human thrombin) [M⁻¹ s⁻¹]	kinact/KI (rat skin tryptase) [M⁻¹ s⁻¹]	kinact/KI (bovine trypsin) [M⁻¹ s⁻¹]	kinact/KI [3] [M⁻¹ s⁻¹]	also measured
CC(C)NC(=O)Nc1ccc2c(Cl)c(OCCSC(=N)N)oc(=O)c2c1 [(CH3)2 CHNHCONH-CiTEtOIC, 7-(isopropylcarbamoylamino)-4-chloro-3-(2-isothiureidoethoxy)isocoumarin]	4100	5000	–	–	–	–
C[C@H](N)C(=O)N[C@@H](C)C(=O)Nc1ccc2c(Cl)c(OCCSC(=N)N)oc(=O)c2c1 [Ala--Ala--NH-CiTEtOIC, 7-(L-alanyl-L-alanylamino)-4-chloro-3-(2-isothiureidoethoxy)isocoumarin]	1070	880	–	–	–	kinact/KI (human factor Xa): 1490 M⁻¹ s⁻¹
C[C@H](NC(=O)OC(C)(C)C)C(=O)N[C@@H](C)C(=O)Nc1ccc2c(Cl)c(OCCSC(=N)N)oc(=O)c2c1 [Boc--Ala-- Ala--NH-CiTEtOIC, 7-(N-t-butyloxycarbonyl-L-alanyl-L-alanylamino)-4-chloro-3-(2-isothiureidoethoxy)isocoumarin]	1530	970	–	–	–	–
CC(C)(C)OC(=O)N[C@H](Cc1ccccc1)C(=O)Nc1ccc2c(Cl)c(OCCSC(=N)N)oc(=O)c2c1 [Boc-D-Phe--NH-CiTEtOIC, 7-(N-t-butyloxycarbonyl-D-phenylalanylamino)-4-chloro-3-(2-isothiureidoethoxy)isocoumarin]	1040	1090	135000	–	–	kinact/KI [1]: 3100 M⁻¹ s⁻¹; percentage of inhibition [2]: 12%; percentage of inhibition (human lung tryptase): 44%; kinact/KI (chymotrypsin; pH 7.5, 25° C, [I] 0.9-43 μM): 220 M⁻¹ s⁻¹; percentage of inhibition ([3]; Table IX, not time dependent, at 0.34-5.0 μM): 65%; kinact/KI (cathepsin G): 35 M⁻¹ s⁻¹
CC(C)(C)OC(=O)N[C@H](Cc1ccccc1)C(=O)Nc1ccc2c(Cl)c(OCCCSC(=N)N)oc(=O)c2c1 [Boc-D-Phe--NH-CiTPrOIC, 7-(N-t-butyloxycarbonyl-D-phenylalanylamino)-4-chloro-3-(3-isothiureidopropoxy)isocoumarin]	190	230	–	105000	–	–
CC(C)(C)OC(=O)N[C@@H](Cc1ccccc1)C(=O)Nc1ccc2c(Cl)c(OCCSC(=N)N)oc(=O)c2c1 [Boc-L-Phe--NH-CiTEtOIC, 7-(N-t-butyloxycarbonyl-L-phenylalanylamino)-4-chloro-3-(2-isothiureidoethoxy)isocoumarin]	1090	1140	–	–	–	kinact/KI (human factor Xa): 1620 M⁻¹ s⁻¹
CC(C)(C)OC(=O)N[C@@H](Cc1ccccc1)C(=O)Nc1ccc2c(Cl)c(OCCCSC(=N)N)oc(=O)c2c1 [Boc-L-Phe--NH-CiTPrOIC, 7-(N-t-butyloxycarbonyl-L-phenylalanylamino)-4-chloro-3-(3-isothiureidopropoxy)isocoumarin]	330	520	150000	–	6000	kobs/[I] (human lung tryptase): 170,000 M^-1 s^-1
CC(=O)Nc1ccc2c(Cl)c(OCCCSC(=N)N)oc(=O)c2c1 [CH3 CONH-CiTPrOIC, 7-(acetylamino)-4-chloro-3-(3-isothiureidopropoxy)isocoumarin]	420	310	99000	107000	7000	t1/2 for spontaneous hydrolysis [4]: 1.13 h; kinact/KI [1]: 200 M⁻¹ s⁻¹; percentage of inhibition (human lung tryptase): 60%; kinact/KI (chymotrypsin; pH 7.5, 25° C, [I] 0.9-43 μM): 5200 M⁻¹ s⁻¹; kinact/KI (cathepsin G): 31 M⁻¹ s⁻¹
N=C(N)SCCCOc1oc(=O)c2cc(NC(=O)[C@H](N)Cc3ccccc3)ccc2c1Cl [D-Phe--NH-CiTPrOIC, 7-(D-phenylalanylamino)-4-chloro-3-(3-isothiureidopropoxy)isocoumarin]	180	220	–	68300	–	–
N=C(N)SCCCOc1oc(=O)c2cc(NC(=O)[C@@H](N)Cc3ccccc3)ccc2c1Cl [L-Phe--NH-CiTPrOIC, 7-(L-phenylalanylamino)-4-chloro-3-(3-isothiureidopropoxy)isocoumarin]	400	470	96000	–	11000	percentage of inhibition (human lung tryptase): 54%
N=C(N)SCCOc1oc(=O)c2cc(NC(=O)Nc3cccc4ccccc34)ccc2c1Cl [Naphthyl-NHCONH-CiTEtOIC, 7-(1-naphthylcarbamoylamino)-4-chloro-3-(2-isothiureidoethoxy)isocoumarin]	17500	5800	–	–	–	–
N=C(N)SCCCOc1oc(=O)c2cc(NC(=O)CCc3ccccc3)ccc2c1Cl [PhCH2 CH2 CONH-CiTPrOIC, 7-(3-phenylpropionylamino)-4-chloro-3-(3-isothiureidopropoxy)isocoumarin]	820	630	170000	87900	15000	t1/2 for spontaneous hydrolysis [4]: 1.1 h; kobs/[I] (human lung tryptase): 180,000 M^-1 s^-1
N=C(N)SCCCOc1oc(=O)c2cc(NC(=O)Cc3ccccc3)ccc2c1Cl [PhCH2 CONH-CiTPrOIC, 7-(phenylacetylamino)-4-chloro-3-(3-isothiureidopropoxy)isocoumarin]	600	610	145000	165000	9000	t1/2 for spontaneous hydrolysis [4]: 1.02 h; kinact/KI [1]: 130 M⁻¹ s⁻¹; kobs/[I] (human lung tryptase): 140,000 M^-1 s^-1; kinact/KI (chymotrypsin; pH 7.5, second order rate, equal molar enzyme and inhibitor): 260000 M⁻¹ s⁻¹; kinact/KI (cathepsin G): 64 M⁻¹ s⁻¹
N=C(N)SCCOc1oc(=O)c2cc(NC(=S)Nc3cccc(C(=O)O)c3)ccc2c1Cl [m-Carboxy-PhNHCSNH-CiTEtOIC, 7-(m-carboxyphenylthiocarbamoyl)amino-4-chloro-3-(2-isothiureidoethoxy)isocoumarin]	–	17500	–	–	–	–
